Biological target: T1, PDE5A1 (Homo sapiens, UniProt O76074)
T1 construct: from tissue; host or cells: human platelets from fresh donor blood (10,000 x g supernatant of sonicated lysate)
Test: Inhibition of type 5 phosphodiesterase (PDE5) activity, modified SPA test with human platelet lysate
Assay type: biochemical
Conditions: 0.5 μM cGMP, read-out: PDE5A1 inhibitory values [measured as −log IC50 (mol/l)] (converted)
How it was run: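 Enzyme source is lysate from human platelets (10,000 g supernatant). Compound preincubated 5 min at 37° C in Tris pH 7.4 containing 1 μM motapizone and 10 nM of a PDE2 inhibitor. Reaction started with 0.5 μM cGMP ([3H] tracer) and run 15 min; SPA read-out, IC50 by non-linear regression.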

SMILES | IC50
COCC(=O)N1CC[C@@H](NC(=O)c2c(C)[nH]c3c(-c4cc(F)ccc4OCC4CC4)ncnc23)[C@H](O)C1 (relative stereo) [Example E51, 4-[2-(Cyclopropylmethoxy)-5-fluorophenyl]-N-[(3R*,4R*)-3-hydroxy-1-(methoxyacetyl)piperidin-4-yl]-6-methyl-5H-pyrrolo[3,2-d]pyrimidine-7-carboxamide] | 1 to 10 nM
COCC(=O)N1CC[C@H](O)[C@@H](NC(=O)c2c(C)[nH]c3c(-c4cc(OC)c(F)cc4OCC4CC4)ncnc23)C1 (relative stereo) [Example E118, 4-[2-(cyclopropylmethoxy)-4-fluoro-5-methoxyphenyl]-N-[(3S*,4S*)-4-hydroxy-1-(methoxyacetyl)piperidin-3-yl]-6-methyl-5H-pyrrolo[3,2-d]pyrimidine-7-carboxamide] | < 1 nM
CCC(=O)N1C[C@@H](O)[C@H](NC(=O)c2c(C)[nH]c3c(-c4ccc(F)cc4OCC4CC4)ncnc23)C1 (relative stereo) [Example E32, 4-[2-(Cyclopropylmethoxy)-4-fluorophenyl]-N-[(3R*,4R*)-4-hydroxy-1-propanoylpyrrolidin-3-yl]-6-methyl-5H-pyrrolo[3,2-d]pyrimidine-7-carboxamide] | 1 to 10 nM
CCC(=O)N1C[C@@H](O)[C@H](NC(=O)c2c(C)[nH]c3c(-c4cc(OC)ccc4OCC4CC4)ncnc23)C1 (relative stereo) [Example E193, 4-[2-(Cyclopropylmethoxy)-5-methoxyphenyl]-N-[(3R*,4R*)-4-hydroxy-1-propionylpyrrolidin-3-yl]-6-methyl-5H-pyrrolo[3,2-d]pyrimidine-7-carboxamide] | 1 to 10 nM
COCC(=O)N1CC[C@@H](NC(=O)c2c(C)[nH]c3c(-c4cc(C)c(F)cc4OCC4CC4)ncnc23)[C@H](O)C1 (relative stereo) [Example E130, 4-[2-(Cyclopropylmethoxy)-4-fluoro-5-methylphenyl]-N-[(3R*,4R*)-3-hydroxy-1-(methoxyacetyl)piperidin-4-yl]-6-methyl-5H-pyrrolo[3,2-d]pyrimidine-7-carboxamide] | < 1 nM
CCC(=O)N[C@H]1CC[C@@H](NC(=O)c2c(C)[nH]c3c(-c4cc(OC)c(F)cc4OCC4CC4)ncnc23)CC1 [Example E111, 4-[2-(Cyclopropylmethoxy)-4-fluoro-5-methoxyphenyl]-6-methyl-N-[cis-4-(propionylamino)cyclohexyl]-5H-pyrrolo[3,2-d]pyrimidine-7-carboxamide] | < 1 nM
COc1ccc(OCC2CC2)c(-c2ncnc3c(C(=O)N[C@@H]4CN(C(C)=O)C[C@H]4O)c(C)[nH]c23)c1 (relative stereo) [Example E192, N-[(3R*,4R*)-1-Acetyl-4-hydroxypyrrolidin-3-yl]-4-[2-(cyclopropylmethoxy)-5-methoxyphenyl]-6-methyl-5H-pyrrolo[3,2-d]pyrimidine-7-carboxamide] | 1 to 10 nM
CCC(=O)N1CC[C@H](O)[C@@H](NC(=O)c2c(C)[nH]c3c(-c4cc(OC)c(F)cc4OCC4CC4)ncnc23)C1 (relative stereo) [Example E117, 4-[2-(Cyclopropylmethoxy)-4-fluoro-5-methoxyphenyl]-N-[(3S*,4S*)-4-hydroxy-1-propionylpiperidin-3-yl]-6-methyl-5H-pyrrolo[3,2-d]pyrimidine-7-carboxamide] | < 1 nM
CCC(=O)N1CCC(NC(=O)c2c(C)[nH]c3c(-c4cc(OC)c(F)cc4OCC4CC4)nc(C)nc23)CC1 [Example E174, 4-[2-(Cyclopropylmethoxy)-4-fluoro-5-methoxyphenyl]-2,6-dimethyl-N-(1-propanoylpiperidin-4-yl)-5H-pyrrolo[3,2-d]pyrimidine-7-carboxamide] | < 1 nM
CCC(=O)N1C[C@@H](O)[C@H](NC(=O)c2c(C)[nH]c3c(-c4ccc(OC)cc4OCC4CC4)ncnc23)C1 (relative stereo) [Example E64, 4-[2-(Cyclopropylmethoxy)-4-methoxyphenyl]-N-[(3R*,4R*)-4-hydroxy-1-propionylpyrrolidin-3-yl]-6-methyl-5H-pyrrolo[3,2-d]pyrimidine-7-carboxamide] | < 1 nM
CC(=O)N[C@H]1CC[C@@H](NC(=O)c2c(C)[nH]c3c(-c4cc(C(C)C)ccc4OCC4CC4)ncnc23)CC1 [Example E161, N-[cis-4-(Acetylamino)cyclohexyl]-4-[2-(cyclopropylmethoxy)-5-(propan-2-yl)phenyl]-6-methyl-5H-pyrrolo[3,2-d]pyrimidine-7-carboxamide] | < 1 nM
CCC(=O)N1CCC(NC(=O)c2c(C)[nH]c3c(-c4cc(OC)c(F)cc4OCC4CC4)ncnc23)CC1 [Example E103, 4-[2-(cyclopropylmethoxy)-4-fluoro-5-methoxyphenyl]-6-methyl-N-(1-propionylpiperidin-4-yl)-5H-pyrrolo[3,2-d]pyrimidine-7-carboxamide] | < 1 nM
CCC(=O)N1CC[C@@H](NC(=O)c2c(C)[nH]c3c(-c4c(OCC5CC5)ccc5c4OCO5)ncnc23)C1 [Example E14, 4-[5-(Cyclopropylmethoxy)-1,3-benzodioxol-4-yl]-6-methyl-N-[(3R)-1-propionylpyrrolidin-3-yl]-5H-pyrrolo[3,2-d]pyrimidine-7-carboxamide] | < 1 nM
COCC(=O)N1CCC(NC(=O)c2c(C)[nH]c3c(-c4ccc(F)cc4OCC4CC4)ncnc23)CC1 [Example E21, 4-[2-(Cyclopropylmethoxy)-4-fluorophenyl]-N-[1-(methoxyacetyl)piperidin-4-yl]-6-methyl-5H-pyrrolo[3,2-d]pyrimidine-7-carboxamide] | < 1 nM

Results, then the molecule that gave them:

IC50 | SMILES
< 1 nM | COc1cc(OCC2CC2)c(-c2ncnc3c(C(=O)N[C@H]4CC[C@@H](NC(=O)CO)CC4)c(C)[nH]c23)cc1F [Example F87, 4-[2-(Cyclopropylmethoxy)-5-fluoro-4-methoxyphenyl]-N-[cis-4-(glycoloylamino)cyclohexyl]-6-methyl-5H-pyrrolo[3,2-d]pyrimidine-7-carboxamide]
< 1 nM | COc1ccc(-c2ncnc3c(C(=O)N[C@@H]4CCN(C(=O)CO)C4)c(C)[nH]c23)c(OCC2CC2)c1 [Example F37, 4-[2-(Cyclopropylmethoxy)-4-methoxyphenyl]-N-[(3R)-1-glycoloylpyrrolidin-3-yl]-6-methyl-5H-pyrrolo[3,2-d]pyrimidine-7-carboxamide]
< 1 nM | Cc1[nH]c2c(-c3c(OCC4CC4)ccc4c3OCO4)ncnc2c1C(=O)N[C@@H]1CCN(C(=O)CO)C1 [Example F7, 4-[5-(Cyclopropylmethoxy)-1,3-benzodioxol-4-yl]-N-[(3R)-1-glycoloylpyrrolidin-3-yl]-6-methyl-5H-pyrrolo[3,2-d]pyrimidine-7-carboxamide]
< 1 nM | Cc1[nH]c2c(-c3ccc(F)cc3OCC3CC3)ncnc2c1C(=O)N[C@H]1CC[C@@H](NC(=O)CO)CC1 [Example F15, 4-[2-(cyclopropylmethoxy)-4-fluorophenyl]-N-[cis-4-(glycoloylamino)cyclohexyl]-6-methyl-5H-pyrrolo[3,2-d]pyrimidine-7-carboxamide]
< 1 nM | CCOc1ccc(C(F)(F)F)cc1-c1ncnc2c(C(=O)NC3CCN(C(=O)[C@H](C)O)CC3)c(C)[nH]c12 [Example F64, 4-[2-Ethoxy-5-(trifluoromethyl)phenyl]-N-{1-[(2S)-2-hydroxypropanoyl]piperidin-4-yl}-6-methyl-5H-pyrrolo[3,2-d]pyrimidine-7-carboxamide]
< 1 nM | Cc1[nH]c2c(-c3ccc(F)cc3OCC3CC3)ncnc2c1C(=O)N[C@H]1CC[C@H](NC(=O)CO)CC1 [Example F13, 4-[2-(Cyclopropylmethoxy)-4-fluorophenyl]-N-[trans-4-(glycoloylamino)cyclohexyl]-6-methyl-5H-pyrrolo[3,2-d]pyrimidine-7-carboxamide]
< 1 nM | COc1ccc(OCC2CC2)c(-c2ncnc3c(C(=O)N[C@@H]4CCN(C(=O)CO)C4)c(C)[nH]c23)c1 [Example F47, 4-[2-(cyclopropylmethoxy)-5-methoxyphenyl]-N-[(3R)-1-glycoloylpyrrolidin-3-yl]-6-methyl-5H-pyrrolo[3,2-d]pyrimidine-7-carboxamide]
< 1 nM | COc1cc(-c2ncnc3c(C(=O)N[C@H]4CC[C@@H](NC(=O)CO)CC4)c(C)[nH]c23)c(OCC2CC2)cc1F [Example F69, 4-[2-(Cyclopropylmethoxy)-4-fluoro-5-methoxyphenyl]-N-[cis-4-(glycoloylamino)cyclohexyl]-6-methyl-5H-pyrrolo[3,2-d]pyrimidine-7-carboxamide]
< 1 nM | COc1cc(-c2ncnc3c(C(=O)NC4CCN(C(=O)CO)CC4)c(C)[nH]c23)c(OCC2CC2)cc1F [Example F65, 4-[2-(Cyclopropylmethoxy)-4-fluoro-5-methoxyphenyl]-N-(1-glycoloylpiperidin-4-yl)-6-methyl-5H-pyrrolo[3,2-d]pyrimidine-7-carboxamide]
1 to 10 nM | CCc1ccc(OCC2CC2)c(-c2ncnc3c(C(=O)NC4CN(C(=O)C(C)O)CC4O)c(C)[nH]c23)c1 (mixture of isomers) [Example F98, Diastereomeric mixture of 4-[2-(cyclopropylmethoxy)-5-ethylphenyl]-N{(3R,4R)-4-hydroxy-1-[(2S)-2-hydroxypropanoyl]pyrrolidin-3-yl}-6-methyl-5H-pyrrolo[3,2-d]pyrimidine-7-carboxamide and 4-[2-(cyclopropylmethoxy)-5-ethylphenyl]-N-{(3S,4S)-4-hydroxy-1-[(2S)-2-hydroxypropanoyl]pyrrolidin-3-yl}-6-methyl-5H-pyrrolo[3,2-d]pyrimidine-7-carboxamide]
< 1 nM | COc1cc(OCC2CC2)c(-c2nc(C)nc3c(C(=O)NC4CCN(C(=O)[C@H](C)O)CC4)c(C)[nH]c23)cc1F [Example F108, 4-[2-(Cyclopropylmethoxy)-5-fluoro-4-methoxyphenyl]-N-{1-[(2S)-2-hydroxypropanoyl]piperidin-4-yl}-2,6-dimethyl-5H-pyrrolo[3,2-d]pyrimidine-7-carboxamide]

From US9376442B2, “Methylpyrrolopyrimidinecarboxamides” (Takeda GmbH, priority 2009, dated 2016)
